Like-named read-outs stand apart in the source and are kept apart here.
Columns and labels:
NCI-H460 = type: cell-based; conditions: Table 29, Non-Small Cell Lung Cancer
MALME-3M = assay: NCI in vitro anti-cancer activity, Melanoma; type: cell-based
786-0 = assay: NCI in vitro anti-cancer activity, Renal Cancer; type: cell-based
T-47D = assay: NCI in vitro anti-cancer activity, Breast Cancer; type: cell-based
OVCAR-3 = assay: NCI in vitro anti-cancer activity, Ovarian Cancer; type: cell-based
HS 578T = assay: NCI in vitro anti-cancer activity, Breast Cancer; type: cell-based
MDA-MB-435 = assay: NCI in vitro anti-cancer activity, Breast Cancer; type: cell-based
Tg DHFR = target: T1, Tg DHFR (Toxoplasma gondii, UniProt Q07422); assay: biochemical; type: biochemical
T1 sequence (Q07422 1-610): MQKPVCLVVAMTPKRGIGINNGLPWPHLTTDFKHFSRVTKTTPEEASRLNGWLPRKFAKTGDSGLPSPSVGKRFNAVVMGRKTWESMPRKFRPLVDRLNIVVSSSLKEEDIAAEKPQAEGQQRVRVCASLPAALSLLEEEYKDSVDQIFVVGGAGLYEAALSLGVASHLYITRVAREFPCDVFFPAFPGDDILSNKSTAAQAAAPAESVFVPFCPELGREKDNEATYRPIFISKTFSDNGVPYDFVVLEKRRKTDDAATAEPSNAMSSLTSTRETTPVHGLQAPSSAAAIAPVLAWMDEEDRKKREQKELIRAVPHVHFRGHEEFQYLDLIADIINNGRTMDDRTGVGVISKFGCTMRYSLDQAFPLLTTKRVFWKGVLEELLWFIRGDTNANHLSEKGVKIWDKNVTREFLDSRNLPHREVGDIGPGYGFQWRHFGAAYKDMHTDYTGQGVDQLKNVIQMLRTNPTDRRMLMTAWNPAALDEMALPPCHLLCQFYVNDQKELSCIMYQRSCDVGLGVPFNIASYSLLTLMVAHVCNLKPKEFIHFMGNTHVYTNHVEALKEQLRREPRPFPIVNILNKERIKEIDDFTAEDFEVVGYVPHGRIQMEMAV
Protocol: The selectivity ratio is a measure of the selectivity of a compound for Pc DHFR or Tg DHFR and is expressed as the IC50 value of the DHFR from rate liver (RL) divided by the IC50 value of either the Pc DHFR or the Tg DHFR, depending on which organism the compounds are being tested against. For example, the selectivity ratio of a compound is calculated by the following formula: [formula]

NCI-H226 = type: cell-based
COLO 205 = assay: NCI in vitro anti-cancer activity, Colon Cancer; type: cell-based
NCI-H23 = type: cell-based
MDA-MB-231/ATCC = assay: NCI in vitro anti-cancer activity, Breast Cancer; type: cell-based
OVCAR-8 = assay: NCI in vitro anti-cancer activity, Ovarian Cancer; type: cell-based
BT-549 = assay: NCI in vitro anti-cancer activity, Breast Cancer; type: cell-based
Pc DHFR = target: T2, Pc DHFR (Pneumocystis carinii, UniProt P16184); assay: biochemical
T2 sequence (P16184 1-206): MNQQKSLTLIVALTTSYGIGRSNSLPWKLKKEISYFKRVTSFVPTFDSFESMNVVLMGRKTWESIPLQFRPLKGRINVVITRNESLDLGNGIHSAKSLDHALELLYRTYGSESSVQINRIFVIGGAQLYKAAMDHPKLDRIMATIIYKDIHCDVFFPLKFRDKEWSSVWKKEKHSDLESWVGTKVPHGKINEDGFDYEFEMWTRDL

SK-MEL-2 = assay: NCI in vitro anti-cancer activity, Melanoma; type: cell-based
TK-10 = assay: NCI in vitro anti-cancer activity, Renal Cancer; type: cell-based
UO-31 = assay: NCI in vitro anti-cancer activity, Renal Cancer; type: cell-based
SNB-75 = assay: NCI in vitro anti-cancer activity, CNS Cancer; type: cell-based
IGROV1 = assay: NCI in vitro anti-cancer activity, Ovarian Cancer; type: cell-based
MDA-N = assay: NCI in vitro anti-cancer activity, Breast Cancer; type: cell-based
A498 = assay: NCI in vitro anti-cancer activity, renal cancer; conditions: Table 29, Renal Cancer, A498
Text: The compounds identified below were further tested for their in vitro anti-cancer activity by the National Cancer Institute.

SF-268 = assay: NCI in vitro anti-cancer activity, CNS Cancer; type: cell-based
EKVX = type: cell-based; conditions: read-out: GI50
SR = assay: NCI in vitro anti-cancer activity, Leukemia; type: cell-based
SK-OV-3 = assay: NCI in vitro anti-cancer activity, Ovarian Cancer; type: cell-based
HCT-116 = assay: NCI in vitro anti-cancer activity, Colon Cancer; type: cell-based
CAKI-1 = assay: NCI in vitro anti-cancer activity, Renal Cancer; type: cell-based
KM12 = assay: NCI in vitro anti-cancer activity, Colon Cancer; type: cell-based
RXF 393 = assay: NCI in vitro anti-cancer activity, Renal Cancer; type: cell-based
HCT-15 = assay: NCI in vitro anti-cancer activity, Colon Cancer; type: cell-based; conditions: Homo sapiens; HCT-15, Colon Cancer

## COc1ccccc1CCc1cn(Cc2ccccc2)c2nc(N)nc(C)c12 [Compound 113-148]
NCI-H460
  GI50: 7.7 µM
MALME-3M; Table 29, Melanoma
  GI50: 18.6 µM
786-0; Table 29, Renal Cancer, 786-0
  GI50: 11.6 µM
T-47D; Table 29, Breast Cancer
  GI50: 3.84 µM
OVCAR-3; Table 29, Ovarian Cancer, OVCAR-3
  GI50: 14.8 µM
HS 578T; Table 29, Breast Cancer
  GI50: 14.9 µM
MDA-MB-435; Table 29, Breast Cancer
  GI50: 13 µM
Tg DHFR; @ 85 μM
  % inhibition Tg DHFR: 27% @ 85 μM
NCI-H226; Table 29, Non-Small Cell Lung Cancer, NCI-H226
  GI50: 12.4 µM
COLO 205; Table 29, Colon Cancer, COLO 205
  GI50: 11.7 µM
NCI-H23; Table 29, Non-Small Cell Lung Cancer, NCI-H23
  GI50: 8.47 µM
MDA-MB-231/ATCC; Table 29, Breast Cancer
  GI50: 10.8 µM
OVCAR-8; Table 29, Ovarian Cancer, OVCAR-8
  GI50: 17.6 µM
BT-549; Table 29, Breast Cancer, BT-549
  GI50: 15.8 µM
Pc DHFR; @ 85 μM
  % inhibition Pc DHFR: 45% @
SK-MEL-2; Table 29, Melanoma, SK-MEL-2
  GI50: 13.1 µM
TK-10; Table 29, Renal Cancer, TK-10
  GI50: 10.2 µM
UO-31; Table 29, Renal Cancer, UO-31
  GI50: 4.78 µM
SNB-75; Table 29, CNS Cancer, SNB-75
  GI50: 17.6 µM
IGROV1; Table 29, Ovarian Cancer, IGROV1
  GI50: 14.2 µM
MDA-N; Table 29, Breast Cancer
  GI50: 14.7 µM
A498
  GI50: 1.94 µM
SF-268; Table 29, CNS Cancer, SF-268
  GI50: 11 µM
EKVX; Table 29, Non-Small Cell Lung Cancer
  GI50: 5.78 µM
SR; Table 29, Leukemia
  GI50: 3.51 µM
SK-OV-3; Table 29, Ovarian Cancer, SK-OV-3
  GI50: 17.3 µM
HCT-116; Table 29, Colon Cancer
  GI50: 4.51 µM
CAKI-1; Table 29, Renal Cancer, CAKI-1
  GI50: 11.6 µM
KM12; Table 29, Colon Cancer, KM12
  GI50: 12.2 µM
RXF 393; Table 29, Renal Cancer, RXF 393
  GI50: 11.1 µM

## Nc1nc(N)c2c(CNc3ccc(C(=O)N[C@@H](CCC(=O)O)C(=O)O)cc3)c[nH]c2n1 [Compound 9]
MALME-3M; Homo sapiens, Melanoma
  GI50: < 0.01 µM
HCT-15
  GI50: < 0.01 µM
786-0; Homo sapiens, 786-0, Renal Cancer
  GI50: < 0.01 µM
T-47D; Homo sapiens, T47D, Breast Cancer
  GI50: > 100 µM
OVCAR-3; Homo sapiens, OVCAR-3, Ovarian Cancer
  GI50: > 100 µM
HS 578T; Homo sapiens, Breast Cancer
  GI50: > 100 µM
MDA-MB-435; Homo sapiens
  GI50: 0.687 µM
Tg DHFR
  IC50: 0.21 µM
NCI-H226; Homo sapiens, NCI-H226, Non-Small Cell Lung Cancer
  GI50: > 100 µM
COLO 205; Homo sapiens, COLO 205, Colon Cancer
  GI50: > 100 µM
NCI-H23; Homo sapiens, NCI-H23, Non-Small Cell Lung Cancer
  GI50: 0.0575 µM
MDA-MB-231/ATCC; Homo sapiens, Breast Cancer
  GI50: > 100 µM
OVCAR-8; Homo sapiens, OVCAR-8, Ovarian Cancer
  GI50: < 0.01 µM
BT-549; Homo sapiens, BT-549, Breast Cancer
  GI50: > 100 µM
Pc DHFR
  IC50: 0.038 µM
SK-MEL-2; Homo sapiens, SK-MEL-2, Melanoma
  GI50: > 100 µM
TK-10; Homo sapiens, TK-10, Renal Cancer
  GI50: > 100 µM
UO-31; Homo sapiens, UO-31, Renal Cancer
  GI50: < 0.01 µM
SNB-75; Homo sapiens, SNB-75, CNS Cancer
  GI50: < 0.01 µM
IGROV1; Homo sapiens, IGROV-1, IGROV1, Ovarian Cancer
  GI50: < 0.01 µM
MDA-N; Homo sapiens, Breast Cancer
  GI50: < 0.01 µM
SF-268; Homo sapiens, SF-268, CNS Cancer
  GI50: < 0.01 µM
EKVX; Homo sapiens, Non-Small Cell Lung Cancer
  GI50: 39.7 µM
SR; Homo sapiens, Leukemia
  GI50: > 100 µM
SK-OV-3; Homo sapiens, SK-OV-3, Ovarian Cancer
  GI50: > 100 µM
HCT-116; Homo sapiens
  GI50: < 0.01 µM
CAKI-1; Homo sapiens, CAKI-1, Renal Cancer
  GI50: < 0.01 µM
KM12; Homo sapiens, KM12, Colon Cancer
  GI50: 33.2 µM
RXF 393; Homo sapiens, RXF 393, Renal Cancer
  GI50: > 100 µM

Reference: patent publication US6962920B2, “Pyrimidine derivatives and methods of making and using these derivatives” (Duquesne University of the Holy Ghost, priority 1992, dated 2005)
